# Assays:
# MMP-1 = MMP-1 expression in UV-irradiated HaCaT cells, ELISA; format: cell-based, human
# Experimental: PINP and MMP-1 levels were measured in cell culture media using enzyme-linked immunoassay (ELISA) kits (Yutong Biological Technology Co., Changzhou, China). All experiments were conducted according to the manufacturer’s instructions. Purified Human MMP-1 antibody is coated in microtiter plate wells, making solid-phase antibodies. Then add the sample to the wells, a Combined antibody which With HRP labeled, become antibody-antigen-enzyme-antibody complex, after washing Completely, Add TMB substrate solution, TMB substrate becomes blue color At HRP enzyme-catalyzed, the reaction is terminated by the addition of a sulphuric acid solution and the color change is measured spectrophotometrically at a wavelength of 450 nm. The concentration of MMP-1 in the samples is then determined by comparing the O.D. of the samples to the standard curve. The content of PINP was determined on the same principles.
# HaCaT cells = assay: Cytotoxicity in HaCaT cells, CCK-8; conditions: serum-free medium
# Experimental: Cells were cultured in Dulbecco’s modified Eagle’s medium (DMEM; Gibco, Thermo Fisher Scientific, Waltham, MA, USA) supplemented with 10% heat-inactivated fetal bovine serum (FBS; Gibco) and 1% antibiotics [100 U/mL penicillin and 100 µg/mL streptomycin (Invitrogen, Thermo Fisher Scientific, Waltham, MA, USA)] at 37 °C in a humidified 5% CO2 incubator (SANYO, Ōsaka, JPN). HaCaT cells were subcultured when they reached 80% to 90% confluence. Cells were cultured for 12 h in 10% heat-inactivated FBS before being used for experiments. When required, HaCaT cells were treated with OPs in a serum-free medium and incubated under the same conditions (Figure 15B).
# Cell viability was evaluated by measuring the dehydrogenase-catalyzed formation of a yellow dye in living cells. In the presence of electronic coupling reagents, WST-8 (tetrazolium salt 2-(2-methoxy-4-nitrophenyl)-3-(4-nitrophenyl)-5-(2,4-disulfophenyl) -2H-tetrazolium, monosodium salt (CCK-8)) is reduced to formazan, a yellow dye, by dehydrogenase.
# Cells were seeded on 96-well plates at a density of 1 × 10^4 cells/well; viability was measured 24 h after UV-irradiation. […] Absorbance was measured using a microplate reader (Varioskan Flash; Thermo, Waltham, MA, USA) at λ = 450 nm. […] Cytotoxicity and optimal concentrations of OPs were determined using similar steps.
# [1] = system: UV-irradiated HaCaT cells; assay: Cell viability of UV-irradiated HaCaT cells after pretreatment, CCK-8; format: cell-based, human; conditions: pretreatment one day, UV-irradiation
# Experimental: For UV-irradiation (Combined UVA and UVB irradiation), HaCaT cells were cultured in 6-well plates (3 × 10^5 cells/well), 12-well plates (1 × 10^5 cells/well), and 96-well plates (1 × 10^4 cells/well) for one day. When cells sufficiently adhered, the medium was removed and cells were washed twice with PBS. Each well contained a thin layer of PBS to keep cell surfaces from drying. The lids of culture plates were opened, and the plates were placed under a UV lamp emitting both UVA (365 nm) and UVB (310 nm) light for 8 min. Irradiation dose was calculated as: Dose (mJ/cm^2) = Exposure time (s) × Intensity (mW/cm^2). After irradiation, cells were washed with warm PBS and incubated with serum-free DMEM for one day or longer.
Substance,Abnormal upregulation of MMP-1 (synthetic peptides) (MMP-1),Concentration without cytotoxicity (HaCaT cells) [ng/mL],Effect on survival of UV-irradiated HaCaT cells [1]
"AIVAEVNEAAK [Peptide I, synthesized peptide identified in OP5-3]",most prominent effect,–,–
GVAMNPVDHPHGGGEGR [Peptide V],–,0 to 200000,–
LICIVPK [Peptide VI],–,0 to 600000,beneficial effects
"TALAIDAIINQK [Peptide III, synthesized peptide identified in OP5-3]",–,–,beneficial effects
